From patent US8227428B2, “Anti-infammatory macrolide” (Glaxo Group Limited, priority 2009, dated 2012)

Assay: Stability in buffer solutions pH 2 to pH 8 at 25° C.
Type: physicochemical
Method: Stability in buffer solutions pH 2 to pH 8 at 25° C., and in bio-relevant media (SGF pH 1.6, Fasted SIF pH 6.5 and Fed SIF pH 5.0) at 37° C., during 24 hours is monitored. The samples are analysed by LC/MS.
Buffer Solutions and Physiologically Relevant Media Used in Stability Assay:
LC Conditions: Instrument HP1100
Column: Waters XBridge C18, 2.1×50 mm, 3.5 μm
Guard column: Waters XBridge C18, 2.1×10 mm, 3.5 μm
• A) 0.1% HCOOH/H2O • B) 0.1% HCOOH/CH3CN Gradient Timetable: […]
Flow: 0.3 mL/min Column temp.: 25° C. Sample temp.: 25° C. (for stability assay in buffer solutions) • 37° C. (for stability assay in bio-relevant media) Injector volume: 3 μL (without injection program) MS Conditions: Instrument HP MS API-ES, positive ion mode Mass Range: 150-1500 Fragmentor: 100 Gain: 1.0 Treshold: 150 Step size: 0.20 Gas Temperature: 350° C. Drying Gas Flow: 13 L/min Nebulizer Pressure: 35 psig Capillary Voltage Positive 4000 V • Negative 4000 V Sample Preparation: a) For Stability Assay in Buffer Solutions
Compounds are dissolved in CH3CN to produce a 1 mg/mL stock solution. The stock solution is diluted to a concentration of 0.2 mg/mL (1 mL solution in 4 mL buffer) with appropriate buffer to produce a working solution.
Each solution at each pH is then dispatched into vials that are sealed and stored at room temperature in order to be analyzed at the proper time point. Before analysis, pH values of prepared sample solutions are checked and adjusted if neccessary.

## CC[C@H]1OC(=O)[C@H](C)[C@@H](O[C@H]2C[C@@](C)(OC)[C@@H](OC(=O)CCN(CC)CC)[C@H](C)O2)[C@H](C)[C@@H](O[C@@H]2O[C@H](C)C[C@H](NC)[C@H]2O)[C@](C)(OC)C[C@@H](C)C(=O)N[C@H](C)[C@@H](O)[C@]1(C)O [Example 2, 3′-N-Demethyl-4″-O-(3-diethylaminopropionoyl)-6-O-methyl-9a-aza-9a-homoerythromycin A]
25° C., during 24 hours
  stability in buffers at pH 7 and at pH 8: showed instability
pH 2, 25° C., 2 h
  Percentage (Area %) of the compound observed in buffers: 100 Area %
pH 2, 25° C., 4 h
  Percentage (Area %) of the compound observed in buffers: 100 Area %
pH 2, 25° C., 6 h
  Percentage (Area %) of the compound observed in buffers: 98.7 Area %
pH 2, 25° C., 8 h
  Percentage (Area %) of the compound observed in buffers: 98.5 Area %
pH 2, 25° C., 12 h
  Percentage (Area %) of the compound observed in buffers: 97.6 Area %
pH 2, 25° C., 14 h
  Percentage (Area %) of the compound observed in buffers: 97.6 Area %
pH 2, 25° C., 18 h
  Percentage (Area %) of the compound observed in buffers: 97.5 Area %
pH 2, 25° C., 20 h
  Percentage (Area %) of the compound observed in buffers: 97.3 Area %
pH 2, 25° C., 22 h
  Percentage (Area %) of the compound observed in buffers: 97.2 Area %
pH 2, 25° C., 24 h
  Percentage (Area %) of the compound observed in buffers: 97.2 Area %
pH 2, 25° C., Initial
  Percentage (Area %) of the compound observed in buffers: 100 Area %
pH 3, 25° C., 2 h
  Percentage (Area %) of the compound observed in buffers: 100 Area %
pH 3, 25° C., 4 h
  Percentage (Area %) of the compound observed in buffers: 100 Area %
pH 3, 25° C., 6 h
  Percentage (Area %) of the compound observed in buffers: 98.8 Area %
pH 3, 25° C., 8 h
  Percentage (Area %) of the compound observed in buffers: 97.5 Area %
pH 3, 25° C., 12 h
  Percentage (Area %) of the compound observed in buffers: 97.3 Area %
pH 3, 25° C., 14 h
  Percentage (Area %) of the compound observed in buffers: 97.3 Area %
pH 3, 25° C., 18 h
  Percentage (Area %) of the compound observed in buffers: 97.0 Area %
pH 3, 25° C., 20 h
  Percentage (Area %) of the compound observed in buffers: 97.0 Area %
pH 3, 25° C., 22 h
  Percentage (Area %) of the compound observed in buffers: 97.0 Area %
pH 3, 25° C., 24 h
  Percentage (Area %) of the compound observed in buffers: 96.9 Area %
pH 3, 25° C., Initial
  Percentage (Area %) of the compound observed in buffers: 100 Area %
pH 4, 25° C., 2 h
  Percentage (Area %) of the compound observed in buffers: 100 Area %
pH 4, 25° C., 4 h
  Percentage (Area %) of the compound observed in buffers: 100 Area %
pH 4, 25° C., 6 h
  Percentage (Area %) of the compound observed in buffers: 100 Area %
pH 4, 25° C., 8 h
  Percentage (Area %) of the compound observed in buffers: 99.3 Area %
pH 4, 25° C., 12 h
  Percentage (Area %) of the compound observed in buffers: 99.0 Area %
pH 4, 25° C., 14 h
  Percentage (Area %) of the compound observed in buffers: 98.5 Area %
pH 4, 25° C., 18 h
  Percentage (Area %) of the compound observed in buffers: 98.5 Area %
pH 4, 25° C., 20 h
  Percentage (Area %) of the compound observed in buffers: 98.4 Area %
pH 4, 25° C., 22 h
  Percentage (Area %) of the compound observed in buffers: 98.4 Area %
pH 4, 25° C., 24 h
  Percentage (Area %) of the compound observed in buffers: 98.3 Area %
pH 4, 25° C., Initial
  Percentage (Area %) of the compound observed in buffers: 100 Area %
pH 5, 25° C., 2 h
  Percentage (Area %) of the compound observed in buffers: 98.5 Area %
pH 5, 25° C., 4 h
  Percentage (Area %) of the compound observed in buffers: 98.5 Area %
pH 5, 25° C., 6 h
  Percentage (Area %) of the compound observed in buffers: 98.4 Area %
pH 5, 25° C., 8 h
  Percentage (Area %) of the compound observed in buffers: 98.4 Area %
pH 5, 25° C., 12 h
  Percentage (Area %) of the compound observed in buffers: 98.4 Area %
pH 5, 25° C., 14 h
  Percentage (Area %) of the compound observed in buffers: 98.3 Area %
pH 5, 25° C., 18 h
  Percentage (Area %) of the compound observed in buffers: 98.3 Area %
pH 5, 25° C., 20 h
  Percentage (Area %) of the compound observed in buffers: 98.3 Area %
pH 5, 25° C., 22 h
  Percentage (Area %) of the compound observed in buffers: 98.3 Area %
pH 5, 25° C., 24 h
  Percentage (Area %) of the compound observed in buffers: 98.0 Area %
pH 5, 25° C., Initial
  Percentage (Area %) of the compound observed in buffers: 100 Area %
pH 6, 25° C., 2 h
  Percentage (Area %) of the compound observed in buffers: 99.6 Area %
pH 6, 25° C., 4 h
  Percentage (Area %) of the compound observed in buffers: 99.4 Area %
pH 6, 25° C., 6 h
  Percentage (Area %) of the compound observed in buffers: 99.0 Area %
pH 6, 25° C., 8 h
  Percentage (Area %) of the compound observed in buffers: 99.0 Area %
pH 6, 25° C., 12 h
  Percentage (Area %) of the compound observed in buffers: 99.0 Area %
pH 6, 25° C., 14 h
  Percentage (Area %) of the compound observed in buffers: 98.5 Area %
pH 6, 25° C., 18 h
  Percentage (Area %) of the compound observed in buffers: 98.3 Area %
